Data published in patent US7091185B2, “Periodic antimicrobial peptides” (Dow Global Technologies Inc., priority 2003, dated 2006).
Where two headings read alike, the source gives them in different places. Where no end group is shown, it is not given here.

What was measured:
[1] = tested on: P. aeruginosa ATCC 15442 / Staph. aureus ATCC 6538; test: HMARQ biocidal testing; type: cell-based; settings: summary of Table 6; peptides too small to span the membrane
Protocol: Biocide efficacy protocols were improved by reducing sample size, organizing the test material into an array format, implementing most probable number (MPN) quantitation and using multi-channel liquid handling equipment. We call the new method “high-throughput microanalysis and rapid quantitation” or “HMARQ.” HMARQ is directly applicable to current industrial efficacy tests such as multi-cycle preservation challenge or time course disinfection tests.
HMARQ is performed in a high throughput plate, such as 96-well microtiter plates. Typical sample volumes have been reduced down to 200 to 300 μL, but can be reduced further if desired. In these samples, no more than 10% of the total volume will be composed of the biocide and organism solution, and all non-matrix additions are normalized for all samples.
The sample matrix is first inoculated with the desired concentration of microorganisms. Inoculated sample matrix is then added to the 96-well assay block containing the biocide(s) under study. Each sample block contains biocide treated samples and untreated control samples (lacking biocide). Once the samples are prepared, the entire block of samples is mixed by vortexing until each sample is homogenous. In general, the study starts once mixing is complete, and samples are removed as required for the analysis. When Kill Time testing (rate of biocide activity) is performed, the microorganisms are added after biocide addition to the samples, allowing for rapid mixing and analysis.
Bacterial concentration (CFU/mL) is determined using the most probable number method (MPN). […] A serial 1:10 dilution will yield a bacterial concentration resolution of 1 log and the log reduction is determined by comparing the concentration of organisms in a treated sample to the concentration of organisms in untreated samples. […]
Using the HMARQ test described above, periodic peptides were generated and tested for Kill Activity. […] Units are expressed as ppm (μg/mL) needed for 3.5 log kill at 15 min or 24 hour and the results are shown below.

Staph. aureus ATCC 6538 = test: HMARQ biocidal kill activity; type: cell-based; settings: Staph. aureus ATCC 6538 (gram+)
Outline: (§1)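 Inoculated sample matrix (200–300 μL) added to biocide in 96-well blocks alongside untreated controls; for kill-time runs organisms added after biocide. Viable counts by MPN serial 1:10 dilution in TSB with 50 μM resazurin indicator; values are ppm (μg/mL) giving 3.5 log kill versus untreated at 15 min or 24 h.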

P. aeruginosa ATCC 15442 = test: HMARQ biocidal kill activity; type: cell-based; settings: P. aeruginosa ATCC 15442 (gram−)
Outline: as §1

Red blood cell toxicity = type: cell-based; settings: red blood cells (RBC); RBCs; concentration required for 50% toxicity; read-out: TX50
Red blood cells (RBC) = test: Red blood cell toxicity; type: cell-based
HeLa cell line = test: HeLa MTS cellular reduction toxicity assay; type: cell-based; settings: for TX50: 24 h, MTS
Outline: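 HeLa cells grown 48 h, then exposed to serial 2-fold peptide dilutions for 24 h at 37 °C, 5% CO2. MTS-PMS added for 1 h; absorbance at 490 nm compared with untreated cells. TX50 (50% toxicity concentration) from sigmoidal curve fit.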

Cr. Neoformans 32045 = type: cell-based
Outline: (§2)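 Broth microdilution per NCCLS, adapted for fungi with Sabouraud Dextrose Broth; KFAK-repeat peptide multimers in two-fold dilutions from 1,000 to 1 μg/ml. Growth by OD620 after overnight incubation; IC50 by sigmoidal fit, in duplicate, repeated at least twice.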

C. albicans 10231 = type: cell-based; settings: 10231
Outline: as §2

P. aeruginosa ATCC 10145 = settings: ATCC 10145
E. coli ATCC 2592 = settings: ATCC 2592
[2] = tested on: S. aureus (methicillin resistant) ATCC 33591
[3] = S. aureus (methicillin resistant) 33591, gram+

Row | Substance | ppm needed for 3.5 log kill at 15 min (Staph. aureus ATCC 6538) | ppm needed for 3.5 log kill at 24 hr (Staph. aureus ATCC 6538) | ppm needed for 3.5 log kill at 15 min (P. aeruginosa ATCC 15442) | ppm needed for 3.5 log kill at 24 hr (P. aeruginosa ATCC 15442) | HC50 at 24 h (Red blood cell toxicity) | % kill at 250 μg/ml (Red blood cells (RBC)) | % kill at 500 μg/ml (HeLa cell line) | TX50 (HeLa cell line) | IC50 (Cr. Neoformans 32045) | MIC (Cr. Neoformans 32045) | IC50 (C. albicans 10231) | MIC (C. albicans 10231) | IC50 (P. aeruginosa ATCC 10145) | MIC (P. aeruginosa ATCC 10145) | IC50 (E. coli ATCC 2592) | MIC (E. coli ATCC 2592) | IC50 ([2]; ATCC 33591) | MIC ([2]; ATCC 33591) | further results
1 | FKA FKA (FKAFKA; Periodic Peptide) [FKA(2)] | 16 ppm | 500 ppm | >500 ppm | 125 ppm | – | – | – | – | – | – | – | – | – | – | – | – | – | – | biocidal activity (statement) [1]: demonstrate biocidal activity
2 | KFKKFKKFKKFKKFKKFKKFKKFKKFK [KFK (9), KFK KFK KFK KFK KFK KFK KFK KFK KFK] | >500 ppm | 500 ppm | >500 ppm | 63 ppm | > 500 µg/mL | −6% | 80.7% | >500 µg/mL | 39 µg/mL | 62 to 125 µg/mL | 194 µg/mL | 250 to 500 µg/mL | 68 µg/mL | 125 µg/mL | 14 µg/mL | 16 to 32 µg/mL | 92 µg/mL | 125 to 250 µg/mL | –
3 | LKKLLKKLLKKLLKKLLKKLLKKL [LKKL (6), LKKL LKKL LKKL LKKL LKKL LKKL] | 4 ppm | 125 ppm | >500 ppm | 8 ppm | 11 µg/mL | 100% | −1.3% | 26 µg/mL | 93 µg/mL | >125 µg/mL | 213 µg/mL | 250 to 500 µg/mL | 58 µg/mL | 65 µg/mL | 31 µg/mL | 62 to 125 µg/mL | 98 µg/mL | >250 µg/mL | –
4 | LKKLLKKLLKKLLKKLLKKLLKKLLKKLLKKL [LKKL (8), LKKL LKKL LKKL LKKL LKKL LKKL LKKL LKKL] | >500 ppm | 125 ppm | 4 ppm | 8 ppm | 8 µg/mL | 100% | 0.1% | 23 µg/mL | 56 µg/mL | 62 to 125 µg/mL | 179 µg/mL | 250 to 500 µg/mL | 61 µg/mL | 125 µg/mL | 37 µg/mL | 62 to 125 µg/mL | 80 µg/mL | >250 µg/mL | –
5 | LKLKLKLKLKLKLKLKLK [LK (9), LK LK LK LK LK LK LK LK LK] | 16 ppm | 4 ppm | 8 ppm | 8 ppm | > 500 µg/mL | 21% | 46.0% | 137 µg/mL | 4.9 µg/mL | 32 to 62 µg/mL | 216 µg/mL | 250 to 500 µg/mL | 74 µg/mL | 80 µg/mL | 35 µg/mL | 62 to 125 µg/mL | 50 µg/mL | 250 to 500 µg/mL | –
6 | LKLKLKLKLKLKLKLKLKLK [LK (10), LK LK LK LK LK LK LK LK LK LK] | 16 or less ppm | 16 or less ppm | 8 ppm | – | > 500 µg/mL | 27% | 65.0% | >500 µg/mL | 3.0 µg/mL | 62 to 125 µg/mL | 187 µg/mL | 250 to 500 µg/mL | 47 µg/mL | 125 µg/mL | 127 µg/mL | 150 to 250 µg/mL | 29 µg/mL | 125 to 250 µg/mL | –
7 | LRLRLRLRLRLRLR [LR (7), LR LR LR LR LR LR LR] | 31 ppm | 7.8 ppm | >63 ppm | 4 ppm | > 500 µg/mL | – | 86.5% | >500 µg/mL | 1.8 µg/mL | 4 to 8 µg/mL | 182 µg/mL | 250 to 500 µg/mL | 109 µg/mL | 125 µg/mL | 15 µg/mL | 31 to 62 µg/mL | – | – | % kill at 250 μg/ml (Red blood cells (RBC); RBCs, 250 μg/ml): 15%; IC50 [2, 3]: 90 µg/mL; MIC [2, 3]: 250 to 500 µg/mL
8 | LRLRLRLRLRLRLRLRLRLRLR [LR (11), LR LR LR LR LR LR LR LR LR LR LR] | 16 ppm | 8 ppm | – | 8 ppm | 450 µg/mL | 41% | 66.6% | >500 µg/mL | 3.3 µg/mL | 62 to 125 µg/mL | >500 µg/mL | >500 µg/mL | >250 µg/mL | >250 µg/mL | 96 µg/mL | 125 to 250 µg/mL | 39 µg/mL | 125 to 250 µg/mL | –
9 | RFARRFARRFARRFARRFARRFARRFAR [RFAR (7), RFAR RFAR RFAR RFAR RFAR RFAR RFAR] | >500 ppm | 4 ppm | 63 ppm | 125 ppm | 20 µg/mL | 100% | 12.4% | 106 µg/mL | 45 µg/mL | 62 to 125 µg/mL | 172 µg/mL | 250 to 500 µg/mL | 20 µg/mL | 62 µg/mL | 8 µg/mL | 32 to 62 µg/mL | 31 µg/mL | 125 to 250 µg/mL | –
10 | RFARRFARRFARRFARRFARRFARRFARRFAR [RFAR (8), RFAR RFAR RFAR RFAR RFAR RFAR RFAR RFAR] | >500 ppm | 125 ppm | >500 ppm | 16 ppm | 17 µg/mL | 100% | 9.5% | 71 µg/mL | 32 µg/mL | 62 to 125 µg/mL | 144 µg/mL | 250 to 500 µg/mL | 30 µg/mL | 62 µg/mL | 12 µg/mL | 32 to 62 µg/mL | 20 µg/mL | 125 to 250 µg/mL | –
